“And” between values parts separate entries of the source, which are not always exact repeats. Equal entries are not always repeated.
Tests used:
[1] = Lipophilicity by RP-HPLC (logkw); assay type: physicochemical; settings: capacity factor in 100% water
Protocol: HPLC experiments were carried out using an Agilent Technologies (Melbourne, Australia) 1260 Infinity instrument, equipped with a Phenomenex (Sydney, Australia) Onyx^TM Monolithic C18 reverse phase column (100 × 4.6 mm, 130 Å). The mobile phase was made up of 0.06% TFA in water (solvent A) and 0.06% TFA in an acetonitrile:water (9:1) mixture (solvent B). Samples were eluted over a gradient of 0–100% (% B) for 15 min, at a flow rate of 1 mL/min, with a sample injection volume of 10 µL. Eluting peaks were detected using a PDA at 254 nm.
For lipophilicity experiments, RP-HPLC was utilised to determine the logkw of each compound, similarly to what has been previously published for similar complexes. Samples were eluted at various isocratic percentages, ranging from 18–30% solvent B. To determine the dead volume of the column, potassium iodide was used as an external dead volume marker. The retention time of each sample in each isocratic run ( tr ) and the dead volume time ( t0 ) were both substituted in Equation (1) to calculate the capacity factor ( k ). (1) k=tr−t0/t0
Following this, logk was plotted against the percentage of ACN. For each complex, a minimum of four concentrations of ACN were used. This produced a linear graph with the equation in the form:(2) logk=Sφ+logkw where S is the slope, φ is the percentage of ACN, and logkw is the y-intercept, which represents the capacity factor of the compound in 100% water.
It is important to explore the lipophilicity of a drug, as it is widely believed that increased lipophilicity results in greater cellular accumulation. To understand the lipophilicity of 1–4, RP-HPLC was utilised to determine the logkw of each complex. To calculate this, each complex was eluted at different isocratic percentages, whereby the retention time was used in Equation (1) to calculate the capacity factor (k). The percentage of the organic solvent was then plotted against log k for each isocratic percentage, producing a linear equation that allowed for logkw to be deduced using Equation (2) (Figure S38). The logkw value represents the capacity factor of the compound in 100% water and can be used to compare a series of compounds. Since 1–4 comprise the same axially bound ligand, biotin, the lipophilicity was influenced by the groups on the PL. The logkw of each complex is presented in Table 1, with their corresponding PL. The increasing lipophilicity of the complexes followed the order: 1 < 4 < 2 < 3.

H460 lung cancer cells = assay: MTT in vitro cytotoxicity assay, H460; assay type: cell-based; settings: 72 h drug exposure, n = 3, read-out: GI50 ± SEM, H460
Outline: (§1)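 First, cells were plated in duplicate and allowed 24 h to reach logarithmic growth. Compound was then added for 72 h, after which viable cells were measured by MTT at 540 nm. GI50, the concentration halving growth versus the day-0 baseline, came from eight-point curves.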

A431 skin cancer cells = assay: MTT in vitro cytotoxicity assay, A431; assay type: cell-based; settings: 72 h drug exposure, n = 3, read-out: GI50 ± SEM, A431
Outline: as §1

[2] = system: MCF-7 breast cancer cells; assay: MTT in vitro cytotoxicity assay, MCF-7; assay type: cell-based; settings: MTT, 72 h drug exposure, n = 3; read-out: GI50 ± SEM, MCF-7
[3] = Reduction study with ascorbic acid via 1H NMR; assay type: physicochemical; settings: 5 mM complex in D2O with 10X PBS, ascorbic acid 5 mM, 37 °C, four experiments
Protocol: To confirm that the reduction of these prodrugs occurs and the axially bound biotin ligands are released from the cytotoxic platinum(II) core, reduction studies were undertaken using ^1H NMR experiments for 3. The complex was prepared in 5 mM D2O with 10X PBS. Ascorbic acid (5 mM) was added, and the reduction was monitored at 37 °C by ^1H NMR experiments. Over time, the resonances corresponding to the platinum(IV) species decreased, while new resonances corresponding to the platinum(II) species increased (Figure 7).

[4] = system: cisplatin-resistant ADDP ovarian (subclone of A2780) cancer cells; assay: MTT in vitro cytotoxicity assay, ADDP; assay type: cell-based; settings: 72 h drug exposure, n = 3, read-out: GI50 ± SEM, ADDP
Outline: as §1

[5] = system: A2780 ovarian cancer cells; assay: MTT in vitro cytotoxicity assay, A2780; assay type: cell-based; settings: 72 h drug exposure, n = 3, read-out: GI50 ± SEM, A2780
Outline: as §1

[6] = system: Du145 prostate cancer cells; assay: MTT in vitro cytotoxicity assay, Du145; assay type: cell-based
Outline: as §1

HT29 colon cancer cells = assay: MTT in vitro cytotoxicity assay, HT29; assay type: cell-based
Outline: as §1

[7] = system: MIA pancreas cancer cells; assay: MTT in vitro cytotoxicity assay, MIA; assay type: cell-based; settings: 72 h drug exposure, n = 3, read-out: GI50 ± SEM, MIA
Outline: as §1

[8] = system: non-cancerous MCF10A breast cell line; assay: MTT in vitro cytotoxicity assay, MCF10A; assay type: cell-based; settings: 72 h drug exposure, n = 3, read-out: GI50 ± SEM, MCF10A
Outline: as §1

Compound `COc1cc[n+]2c3c1ccc1c(OC)cc[n+](c13)[Pt-2]21([OH])([O]C(=O)CCCC[C@@H]2SC[C@@H]3NC(=O)N[C@@H]32)[NH2+][C@H]2CCCC[C@@H]2[NH2+]1.O=[N+]([O-])[O-].O=[N+]([O-])[O-]` [Complex 3, [Pt(4,7-dimethoxy-1,10-phenanthroline)(1S,2S-diaminocyclohexane)(biotin)(hydroxido)](NO3)2] has a logkw [1] of 0.96, a GI50 (H460 lung cancer cells) of 270 ± 30 nM and a GI50 (A431 skin cancer cells) of 820 ± 220 nM. For the same compound, the GI50 [2] was 99 ± 41 nM, the reduction half-life [3] was ~ 30 ± 7 min and ~ 30 min and the GI50 [4] was 170 ± 20 nM. For the same compound, the GI50 [5] was 370 ± 30 nM, the GI50 ([6]; MTT, 72 h drug exposure, n = 3, read-out: GI50 ± SEM, Du145) was 120 ± 40 nM and the “number-fold potency against cisplatin, Du145 prostate” value ([6]; ratio of GI50 values, 72 h) was 10 fold. The GI50 (HT29 colon cancer cells; MTT, 72 h drug exposure, n = 3, read-out: GI50 ± SEM, HT29) was 130 ± 50 nM, the “number-fold potency against cisplatin, HT29 colon” value (HT29 colon cancer cells; ratio of GI50 values, 72 h) was 87 fold and the GI50 [7] was 180 ± 10 nM. The GI50 [8] was 300 ± 80 nM.
